Measured values taken from publication PMC11845761, “Intestinal human carboxylesterase 2 (CES2) expression rescues drug metabolism and most metabolic syndrome phenotypes in global Ces2 cluster knockout mice” (Acta Pharmacologica Sinica, 2024).
Where two headings read alike, the source gives them in different places. Marks after values point to notes of the source that are not given here. Blank lines part the entries; values can stand above or below the compound they belong to.

Experiments:
[1] = Plasma pharmacokinetics of capecitabine and its metabolites after oral capecitabine in CES2-modified mice; type: in vivo, mouse; details: oral capecitabine 500 mg/kg, plasma; for AUC(0-t) / Cmax / Tmax: female, mouse, po, 500 mg/kg; for AUC(0-t): read-out: AUC0-2h; for Tmax: read-out: Tmax
Procedure: (§1) For capecitabine 2-h experiments, 6–7 female mice received oral capecitabine (500 mg/kg, 10 μL/g), and tail vein blood samples were collected at 0.125, 0.25, 0.5 and 1 h after drug administration. For the vinorelbine 4-h experiment, 6-7 male mice received vinorelbine intravenously (10 mg/kg, 5 μL/g) or orally (10 mg/kg, 10 μL/g) using a blunt-ended needle. Tail vein blood samples were collected at 0.125, 0.25, 0.5, 1 and 2 h after drug administration. […] At the last time point in each experiment (2 or 4 h), mice were anesthetized with 5% isoflurane and blood was collected by cardiac puncture. […] Plasma was isolated from the blood by centrifugation at 9000 × g for 6 min at 4 °C, and the plasma fraction was collected and stored at −30 °C until analysis.
(§2) Concentrations of capecitabine (and its metabolites) and vinorelbine (and its metabolite) in mouse plasma samples and organ homogenates were determined using two independent validated high-performance liquid chromatography-tandem mass spectrometry assays.
(§3) Pharmacokinetic parameters were calculated by non-compartmental methods using the PK solver software. […] Differences were considered statistically significant when P < 0.05. All data are presented as mean ± SD.

[2] = Tissue concentrations of capecitabine and its metabolites 2 h after oral capecitabine in CES2-modified mice; type: in vivo, mouse; details: oral capecitabine 500 mg/kg; for concentration at 2 h: female, mouse, oral, 500 mg/kg
Procedure: as §1, §2, §3

[3] = Ces2^–/– (Ces2 cluster knockout), female Ces2^–/– mice
[4] = Ces2^–/– (Ces2 cluster knockout), female Ces2^–/– mice, read-out: Cmax
[5] = female Ces2^–/–A mice, read-out: Cmax
[6] = female Ces2^–/–V mice, read-out: Cmax
[7] = female wild-type mice, read-out: Cmax
[8] = Ces2^-/-, liver, female Ces2^–/– mice, read-out: Cliver (liver concentration)
[9] = Ces2^-/-, small intestine, female Ces2^–/– mice, read-out: CSI (small intestine tissue concentration)
[10] = Ces2^-/-A, liver, female Ces2^–/–A mice, read-out: Cliver (liver concentration)
[11] = Ces2^-/-A, small intestine tissue, female Ces2^–/–A mice, read-out: CSI (small intestine tissue concentration)
[12] = Ces2^-/-V, liver, female Ces2^–/–V mice, read-out: Cliver (liver concentration)
[13] = Ces2^-/-V, small intestine, female Ces2^–/–V mice, read-out: CSI (small intestine tissue concentration)
[14] = colon, female Ces2^–/– mice, read-out: Ccolon (colon concentration)
[15] = colon, female Ces2^–/–A mice, read-out: Ccolon (colon concentration)
[16] = colon, female Ces2^–/–V mice, read-out: Ccolon (colon concentration)
[17] = colon, female wild-type mice, read-out: Ccolon (colon concentration)
[18] = liver, female wild-type mice, read-out: Cliver (liver concentration)
[19] = small intestine contents, female Ces2^–/– mice, read-out: CSIC (small intestine contents concentration)
[20] = small intestine contents, female Ces2^–/–A mice, read-out: CSIC (small intestine contents concentration)
[21] = small intestine contents, female Ces2^–/–V mice, read-out: CSIC (small intestine contents concentration)
[22] = small intestine contents, female wild-type mice, read-out: CSIC (small intestine contents concentration)
[23] = small intestine tissue, female wild-type mice, read-out: CSI (small intestine tissue concentration)

AUC0-2h ratio (×10^−3) (5-FU/capecitabine) ([1]; female Ces2^–/– mice): 6.4 ± 2.1 ×10^−3
AUC0-2h ratio (×10^−3) (5-FU/capecitabine) ([1]; female Ces2^–/–A mice): 8.0 ± 2.7 ×10^−3
AUC0-2h ratio (×10^−3) (5-FU/capecitabine) ([1]; female Ces2^–/–V mice): 13 ± 1.6***^###^ ×10^−3
AUC0-2h ratio (×10^−3) (5-FU/capecitabine) ([1]; female wild-type mice): 29 ± 8.1 ×10^−3
AUC(0-t) [1, 3]: 187 ± 98 ng·h/mL
Cmax [1, 4]: 147 ± 96 ng/mL
Tmax [1, 3]: 55.8 ± 11.4 min
AUC(0-t) ([1]; female Ces2^–/–A mice): 218 ± 79 ng·h/mL
Cmax [1, 5]: 159 ± 56 ng/mL
Tmax ([1]; female Ces2^–/–A mice): 55.2 ± 12 min
AUC(0-t) ([1]; female Ces2^–/–V mice): 215 ± 100 ng·h/mL
Cmax [1, 6]: 156 ± 81 ng/mL
Tmax ([1]; female Ces2^–/–V mice): 51.6 ± 14.4 min
AUC(0-t) ([1]; female wild-type mice): 168 ± 41 ng·h/mL
Cmax [1, 7]: 105 ± 36 ng/mL
Tmax ([1]; female wild-type mice): 30 ± 16.2 min
Cmax ([1]; female wild-type, Ces2^–/–, Ces2^–/–A and Ces2^–/–V mice, read-out: mean Cmax, range over the mouse models): 105 to 159 ng/mL
Colon concentration ratio (metabolite/capecitabine) ([2]; female Ces2^–/– mice): 0.14 ± 0.03
Liver concentration ratio (metabolite/capecitabine) ([2]; female Ces2^–/– mice): 0.09 ± 0.03
Small intestine concentration ratio (metabolite/capecitabine) ([2]; female Ces2^–/– mice): 0.32 ± 0.10
Small intestine contents Ratio (x 10^-3) (5-FU/Capecitabine) ([2]; female Ces2^–/– mice): 2.1 ± 0.7 x 10^-3
Colon concentration ratio (metabolite/capecitabine) ([2]; female Ces2^–/–A mice): 0.17 ± 0.02
Liver concentration ratio (metabolite/capecitabine) ([2]; female Ces2^–/–A mice): 0.52 ± 0.25
Small intestine concentration ratio (metabolite/capecitabine) ([2]; female Ces2^–/–A mice): 0.32 ± 0.11
Small intestine contents Ratio (x 10^-3) (5-FU/Capecitabine) ([2]; female Ces2^–/–A mice): 1.9 ± 1.6 x 10^-3
Colon concentration ratio (metabolite/capecitabine) ([2]; female Ces2^–/–V mice): 0.50 ± 0.18^###^^^
Liver concentration ratio (metabolite/capecitabine) ([2]; female Ces2^–/–V mice): 0.24 ± 0.07***^###^
Small intestine concentration ratio (metabolite/capecitabine) ([2]; female Ces2^–/–V mice): 2.0 ± 0.9^###^^^
Small intestine contents Ratio (x 10^-3) (5-FU/Capecitabine) ([2]; female Ces2^–/–V mice): 6.8 ± 3.0##^^ x 10^-3
Colon concentration ratio (metabolite/capecitabine) ([2]; female wild-type mice): 0.53 ± 0.09
Liver concentration ratio (metabolite/capecitabine) ([2]; female wild-type mice): 0.65 ± 0.31
Small intestine concentration ratio (metabolite/capecitabine) ([2]; female wild-type mice): 2.1 ± 0.8
Small intestine contents Ratio (x 10^-3) (5-FU/Capecitabine) ([2]; female wild-type mice): 5.1 ± 3.4 x 10^-3
concentration at 2 h [2, 8]: 1520 ± 765 ng/g
concentration at 2 h [2, 9]: 5200 ± 2040 ng/g
concentration at 2 h [2, 10]: 2140 ± 372 ng/g
concentration at 2 h [2, 11]: 4430 ± 1510 ng/g
concentration at 2 h [2, 12]: 1420 ± 574 ng/g
concentration at 2 h [2, 13]: 4120 ± 1840 ng/g
concentration at 2 h [2, 14]: 1830 ± 1010 ng/g
concentration at 2 h [2, 15]: 1460 ± 233 ng/g
concentration at 2 h [2, 16]: 2100 ± 1020 ng/g
concentration at 2 h [2, 17]: 1190 ± 486 ng/g
concentration at 2 h [2, 18]: 747 ± 184 ng/g
concentration at 2 h [2, 19]: 200 ± 109 ng/g
concentration at 2 h [2, 20]: 142 ± 64 ng/g
concentration at 2 h [2, 21]: 263 ± 149 ng/g
concentration at 2 h [2, 22]: 125 ± 90 ng/g
concentration at 2 h [2, 23]: 3020 ± 835 ng/g
Structure (SMILES): O=c1[nH]cc(F)c(=O)[nH]1 [5-FU, 5-fluorouracil, reference compound]

AUC0-2h ratio (metabolite/capecitabine) ([1]; female Ces2^–/– mice): 6.4 ± 1.9
AUC0-2h ratio (metabolite/capecitabine) ([1]; female Ces2^–/–A mice): 6.4 ± 2.4
AUC0-2h ratio (metabolite/capecitabine) ([1]; female Ces2^–/–V mice): 8.0 ± 2.2
AUC0-2h ratio (metabolite/capecitabine) ([1]; female wild-type mice): 21.3 ± 3.5
AUC(0-t) [1, 3]: 175000 ± 37300 ng·h/mL
Cmax [1, 4]: 121000 ± 23800 ng/mL
Tmax [1, 3]: 27.6 ± 16.2 min
AUC(0-t) ([1]; female Ces2^–/–A mice): 165000 ± 45200 ng·h/mL
Cmax [1, 5]: 117000 ± 35700 ng/mL
Tmax ([1]; female Ces2^–/–A mice): 27.6 ± 6 min
AUC(0-t) ([1]; female Ces2^–/–V mice): 123000 ± 34700 ng·h/mL
Cmax [1, 6]: 80000 ± 18200 ng/mL
Tmax ([1]; female Ces2^–/–V mice): 36.6 ± 22.8 min
AUC(0-t) ([1]; female wild-type mice): 123000 ± 24900 ng·h/mL
Cmax [1, 7]: 101000 ± 18000 ng/mL
Tmax ([1]; female wild-type mice): 15 ± 8.4 min
Colon concentration ratio (metabolite/capecitabine) ([2]; female Ces2^–/– mice): 2.0 ± 0.4
Liver concentration ratio (metabolite/capecitabine) ([2]; female Ces2^–/– mice): 2.0 ± 0.6
Small intestine concentration ratio (metabolite/capecitabine) ([2]; female Ces2^–/– mice): 0.36 ± 0.20
Small intestine contents concentration ratio (metabolite/capecitabine) ([2]; female Ces2^–/– mice): 0.11 ± 0.04
Colon concentration ratio (metabolite/capecitabine) ([2]; female Ces2^–/–A mice): 3.2 ± 0.2
Liver concentration ratio (metabolite/capecitabine) ([2]; female Ces2^–/–A mice): 8.8 ± 3.6
Small intestine concentration ratio (metabolite/capecitabine) ([2]; female Ces2^–/–A mice): 0.45 ± 0.21
Small intestine contents concentration ratio (metabolite/capecitabine) ([2]; female Ces2^–/–A mice): 0.10 ± 0.06
Colon concentration ratio (metabolite/capecitabine) ([2]; female Ces2^–/–V mice): 5.1 ± 2.1
Liver concentration ratio (metabolite/capecitabine) ([2]; female Ces2^–/–V mice): 4.0 ± 1.0***##^^
Small intestine concentration ratio (metabolite/capecitabine) ([2]; female Ces2^–/–V mice): 1.80 ± 0.88^###^^^
Small intestine contents concentration ratio (metabolite/capecitabine) ([2]; female Ces2^–/–V mice): 0.13 ± 0.05
Colon concentration ratio (metabolite/capecitabine) ([2]; female wild-type mice): 6.9 ± 1.3
Liver concentration ratio (metabolite/capecitabine) ([2]; female wild-type mice): 17.4 ± 7.3
Small intestine concentration ratio (metabolite/capecitabine) ([2]; female wild-type mice): 3.20 ± 1.70
Small intestine contents concentration ratio (metabolite/capecitabine) ([2]; female wild-type mice): 0.19 ± 0.08
concentration at 2 h [2, 8]: 33300 ± 11600 ng/g
concentration at 2 h [2, 9]: 5410 ± 1430 ng/g
concentration at 2 h [2, 10]: 36600 ± 5870 ng/g
concentration at 2 h [2, 11]: 6220 ± 1830 ng/g
concentration at 2 h [2, 12]: 23300 ± 8530 ng/g
concentration at 2 h [2, 13]: 3600 ± 1570 ng/g
concentration at 2 h [2, 14]: 25700 ± 10700 ng/g
concentration at 2 h [2, 15]: 28200 ± 5870 ng/g
concentration at 2 h [2, 16]: 21200 ± 8100 ng/g
concentration at 2 h [2, 17]: 14900 ± 3800 ng/g
concentration at 2 h [2, 18]: 20300 ± 5740 ng/g
concentration at 2 h [2, 19]: 10800 ± 5610 ng/g
concentration at 2 h [2, 20]: 8120 ± 2840 ng/g
concentration at 2 h [2, 21]: 5180 ± 2410 ng/g
concentration at 2 h [2, 22]: 4410 ± 2350 ng/g
concentration at 2 h [2, 23]: 4510 ± 1340 ng/g
Structure (SMILES): C[C@H]1O[C@@H](n2cc(F)c(N)nc2=O)[C@H](O)[C@@H]1O [5’-DFCR, 5’-deoxy-5-fluorocytidine]
